The term inhibition denotes the relative decrease from the control value, in per cent. Broadly, the IC50 is the concentration that inhibits the measured activity by half. A high value points to a need for much substance.

The first experiment deals with T1, rat Y5 receptor (Rattus norvegicus, UniProt Q63634).
T1 construct: expressed in transfected cells; host or cells: C6 cells (membrane preparation)
T1 sequence (Q63634 1-445): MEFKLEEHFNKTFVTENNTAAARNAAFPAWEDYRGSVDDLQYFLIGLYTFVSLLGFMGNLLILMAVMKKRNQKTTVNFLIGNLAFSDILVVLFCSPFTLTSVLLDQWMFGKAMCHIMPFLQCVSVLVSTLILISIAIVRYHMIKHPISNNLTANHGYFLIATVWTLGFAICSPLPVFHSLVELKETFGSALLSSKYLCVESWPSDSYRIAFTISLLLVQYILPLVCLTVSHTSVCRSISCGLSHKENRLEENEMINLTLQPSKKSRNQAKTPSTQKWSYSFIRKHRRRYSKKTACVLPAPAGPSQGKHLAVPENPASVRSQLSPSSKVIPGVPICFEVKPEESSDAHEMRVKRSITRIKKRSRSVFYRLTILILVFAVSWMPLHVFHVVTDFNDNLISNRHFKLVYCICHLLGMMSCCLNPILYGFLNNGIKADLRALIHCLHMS
Nature of the experiment: Neuropeptide Y5 receptor binding ([125I]-PYY displacement, membranes of transfected C6 cells). The settings on record: compound at 10^−6 M; radioligand [125I]-PYY 100 pM; C6 cells transfected with rat Y5 receptor. As to the method:
Neuropeptide Y5 Receptor Binding Studies:
The methods used for membrane preparation and binding are similar to those described by Y. Hu, B. T. Bloomquist et al. in Y. Hu, B. T. Bloomquist et al., The Journal of Biological Chemistry, 1996, 271, 26315-26319 with modifications. Said literature description is herewith incorporated by reference and forms part of the disclosure. Cells C6 were transfected with the rat Y5 receptor. The cells were grown under standard culture conditions in 150 cm^2 dishes and they were harvested using a rubber scraper and 10 ml PBS. The cells from five dishes were collected and centrifuged 2.500 g for 5 min (4° C.). The pellet was washed by resuspending in 3 ml buffer (Tris-HCl 10 mM, pH 7.4), homogenized using a Potter S homogenizer, 10 strokes at 600 rpm and centrifuged 48.000 g for 20 min (4° C.). The pellet was resuspended in 8 ml membrane buffer (Tris-HCl 25 mM, NaCl 120 mM, KCl 5 mM, KH2PO4 1.2 mM, CaCl2 2.5 mM, MgSO4 1.2 mM, BSA 0.15 mg/ml, Bacitracine 0.5 mg/ml, pH 7.4) and rehomogenized using the Potter S, 10 strokes at 600 rpm. The protein concentration in the incubation was 40 μg/ml. The radioligand was [^125I]-PYY (100 pM) in a total incubation volume of 200 μl. Following incubation at 25° C. for 2 h, the reaction was stopped by addition of 5 ml ice-cold buffer (Tris-HCl 25 mM, NaCl 120 mM, KCl 5 mM, KH2PO4 1.2 mM, CaCl2 2.5 mM, MgSO4 1.2 mM, pH 7.4) and rapid filtration in a Harvester Brandell Cell using filters (Schleicher & Schuell GF 3362) pretreated for two hours with 0.5% polyethyleneimine. Filters were washed one time with 5 ml ice-cold buffer. The filters were placed into plastic scintilation vials and 5 ml scintilation cocktail Ecoscint H were added. The quantity of radioactivity present was determined in a Wallac Winspectral 1414 counter. Non specific binding was determined in the presence of 1 μM de pNPY. All binding assays were done in triplicate.
In the case of `CCn1c2ccccc2c2cc(NC(=O)CN3CCC(Nc4ccc(O)cc4)CC3)ccc21` [Example 15, N-(9-Ethyl-9H-carbazol-3-yl)-2-[4-(4-hydroxy-phenylamino)-piperidin-1-yl]-acetamide], the inhibition at 1 µM is 74.6%.

Turning to `COc1ccccc1NC1CCN(CC(=O)Nc2ccc3c(c2)-c2ccccc2C3=O)CC1` [Example 18, 2-[4-(2-Methoxy-phenylamino)-piperidin-1-yl]-N-(9-oxo-9H-fluoren-3-yl)-acetamide], the inhibition at 1 µM amounted to 96.1%.

Consider `CCN(CCO)c1ccc(NC(=O)CN2CCC(Nc3cccc(OC)c3)CC2)cc1` [Example 25, N-{4-[Ethyl-(2-hydroxy-ethyl)-amino]-phenyl}-2-[4-(3-methoxy-phenylamino)-piperidin-1-yl]-acetamide], for which the inhibition at 1 µM was found to be 51.6%.

Take `O=C(CN1CCC(Nc2cccc(O)c2)CC1)Nc1ccc2c(c1)-c1ccccc1C2=O` [Example 11, 2-[4-(3-Hydroxy-phenylamino)-piperidin-1-yl]-N-(9-oxo-9H-fluoren-3-yl)-acetamide]: the inhibition at 1 µM worked out at 76.9%.

For the compound `COc1ccccc1NC1CCN(CC(=O)Nc2cnc3ccccc3c2)CC1` [Example 21, 2-[4-(2-Methoxy-phenylamino)-piperidin-1-yl]-N-quinolin-3-yl-acetamide], the inhibition at 1 µM amounted to 19.6%.

Take `O=C(CN1CCC(Nc2cccc(O)c2)CC1)Nc1ccc2ncccc2c1` [Example 13, 2-[4-(3-Hydroxy-phenylamino)-piperidin-1-yl]-N-quinolin-6-yl-acetamide]: the inhibition at 1 µM was 27.8%.

Regarding `O=C(CN1CCC(Nc2ccccc2O)CC1)Nc1ccc(C(=O)c2ccccc2)cc1` [Example 2, N-(4-Benzoyl-phenyl)-2-[4-(2-hydroxy-phenylamino)-piperidin-1-yl]-acetamide], the inhibition at 1 µM was 62.5%.

For the compound `CC(=O)c1ccc(NC(=O)CN2CCC(Nc3ccccc3O)CC2)cc1` [Example 7, N-(4-Acetyl-phenyl)-2-[4-(2-hydroxy-phenylamino)-piperidin-1-yl]-acetamide], the inhibition at 1 µM worked out at 14%.

On to `COc1cccc(NC2CCN(CC(=O)Nc3ccc(C(=O)c4ccccc4)cc3)CC2)c1` [Example 26, N-(4-Benzoyl-phenyl)-2-[4-(3-methoxy-phenylamino)-piperidin-1-yl]-acetamide], for which the inhibition at 1 µM was determined as 37%.

Turning to `O=C(CN1CCC(Nc2ccccc2O)CC1)Nc1ccc2ncccc2c1` [Example 5, 2-[4-(2-Hydroxy-phenylamino)-piperidin-1-yl]-N-quinolin-6-yl-acetamide], the inhibition at 1 µM was 22.7%.

For `O=C(CN1CCC(Nc2ccccc2O)CC1)Nc1ccc2c(c1)-c1ccccc1C2=O` [Example 6, 2-[4-(2-Hydroxy-phenylamino)-piperidin-1-yl]-N-(9-oxo-9H-fluoren-3-yl)-acetamide], the inhibition at 1 µM worked out at 95%.

In the case of `COc1ccccc1NC1CCN(CC(=O)Nc2ccc(C(=O)c3ccccc3)cc2)CC1` [Example 22, N-(4-Benzoyl-phenyl)-2-[4-(2-methoxy-phenylamino)-piperidin-1-yl]-acetamide], the inhibition at 1 µM stood at 55.7%.

In the case of `O=C(CN1CCC(Nc2ccccc2)CC1)Nc1ccc2c(c1)CCCC2=O` [Example 35, N-(5-Oxo-5,6,7,8-tetrahydro-naphthalen-2-yl)-2-(4-phenylamino-piperidin-1-yl)-acetamide], the inhibition at 1 µM turned out to be 67.1%.

As to `CCn1c2ccccc2c2cc(NC(=O)CN3CCC(Nc4cccc(O)c4)CC3)ccc21` [Example 10, N-(9-Ethyl-9H-carbazol-3-yl)-2-[4-(3-hydroxy-phenylamino)-piperidin-1-yl]-acetamide], the inhibition at 1 µM is 105%.

On to `CCn1c2ccccc2c2cc(NC(=O)CN3CCC(Nc4cccc(OC)c4)CC3)ccc21` [Example 23, N-(9-Ethyl-9H-carbazol-3-yl)-2-[4-(3-methoxy-phenylamino)-piperidin-1-yl]-acetamide], for which the inhibition at 1 µM came out at 96.9%.

Still in this experiment, the particulars now being: radioligand [125I]-PYY 100 pM; C6 cells transfected with rat Y5 receptor.
`O=C(CN1CCC(Nc2cccc(O)c2)CC1)Nc1ccc2c(c1)-c1ccccc1C2=O` [Example 11, 2-[4-(3-Hydroxy-phenylamino)-piperidin-1-yl]-N-(9-oxo-9H-fluoren-3-yl)-acetamide] displayed an IC50 of 0.0356 µM.

For `O=C(CN1CCC(Nc2ccccc2O)CC1)Nc1ccc2c(c1)-c1ccccc1C2=O` [Example 6, 2-[4-(2-Hydroxy-phenylamino)-piperidin-1-yl]-N-(9-oxo-9H-fluoren-3-yl)-acetamide], the concentration for half-maximal inhibition (IC50) is 0.0575 µM.

`CCn1c2ccccc2c2cc(NC(=O)CN3CCC(Nc4cccc(O)c4)CC3)ccc21` [Example 10, N-(9-Ethyl-9H-carbazol-3-yl)-2-[4-(3-hydroxy-phenylamino)-piperidin-1-yl]-acetamide]: the 50% inhibitory concentration (IC50) was 0.0346 µM.

The record behind these values is patent publication US20100099703A1, “PHENYLAMINO-SUBSTITUTED PIPERIDINE COMPOUNDS, THEIR PREPARATION AND USE AS MEDICAMENTS” (priority 2006, published 2010).
